“And” between values parts separate entries of the source, which are not always exact repeats. Identical values can stand only once. Like-named read-outs stand apart in the source and are kept apart here.
What was measured:
hCA I = hCA I (Homo sapiens, UniProt P00915); test: biochemical; settings: esterase activity, p-nitrophenylacetate substrate, Lineweaver-Burk, mean ± SD
hCA II = hCA II (Homo sapiens, UniProt P00918); test: hCA II esterase activity inhibition (p-nitrophenylacetate); type: biochemical; settings: for Ki: esterase activity, p-nitrophenylacetate substrate, Lineweaver-Burk, mean ± SD; for Selectivity index KI (hCA II/hCA I): ratio of KI values
AChE = molecular target: T1, AChE (Electrophorus electricus, UniProt O42275); test: biochemical; settings: electric eel AChE, acetylthiocholine iodide/DTNB, 412 nm, mean ± SD
T1 construct: AChE activity isolated from electric eel (purchased); purchased; host or cells: isolated from electric eel
Description: AChE activity isolated from electric eel (purchased) was performed by a modified version of the Ellman method[63]. The measurement of AChE activity was performed using Acetylthiocholine (ATChI) iodide as the substrates and 5,5-Dithiobis(2-nitrobenzoic) acid (DTNB)[64]. The ATChI iodide as the substrates was monitored spectrophotometrically at 412 nm as in our previous assays[65]^,[66].

[1] = DPPH free radical scavenging activity; settings: 0.05 mg/mL; mean ± SD, n = 3
Description: The free radical scavenging activity of standard antioxidants and synthesised sulphonamide derivatives was measured by DPPH using the Blois method[49]^,[50] 0.1 mM solution of DPPH^• in ethanol was prepared and 1 ml of this solution was added to 3 ml of the samples solution in ethanol at different concentrations. These solutions were vortexed thoroughly and kept in the darkness for 30 min. The absorbance values of this final mixture were measured at 517 nm. The reduced absorbance of the reaction mixture indicates higher free radical scavenging activity.
(§1) ABTS^•+ scavenging activity assay was performed according to Re method[51]^,[52]. The process of ABTS^•+ (2.0 mM) in water with potassium persulfate (K2S2O8) (2.45 mM) at room temperature in dark for 4 h. gave the ABTS cation radical. Dilution of ABTS^•+ was applied with sodium phosphate buffer (Na3PO4) (0.1 mol/l, pH 7.4) to measure the absorbance at 734 nm. The reactions of ABTS^•+ solution (1.0 ml) with samples solution in ethanol at different concentrations were performed. The inhibition was calculated at 734 nm for each concentration. The DPPH^• and ABTS^•+ free radical scavenging ability was calculated as the following equation: Radical scavenging activity (%) = [(Ac – As)/Ac] × 100. Where, Ac is the absorbance value of DPPH^• and ABTS^•+ before sample addition, while as is the absorbance value after sample addition.

[2] = ABTS radical cation scavenging activity; settings: 0.2 mg/mL; mean ± SD, n = 3
Description: as §1

[3] = Fe3+ reducing power (FRAP, modified Oyaizu method); settings: 0.2 mg/mL; 700 nm; mean ± SD, n = 3
Description: The power by metal-reducing of novel synthesised sulphonamide derivatives were determined by modified Oyaizu method[45]^,[46]. Different amounts of derivatives in 1 ml of ethanol were mixed with 0.5 ml of phosphate buffer (0.2 M, pH 6.6) and 0.5 ml of 1% potassium ferricyanide (K3Fe(CN)6). After the mixtures were incubated at 50 °C for 20 min, trichloroacetic acid (0.5 ml, 10%) was added to each mixture and centrifuged (at 1,008 G for 10 min.). The upper layers of the resulting solutions (0.5 ml) were first mixed with distilled water (0.5 ml) and then FeCl3 (0.1 ml, 0.1%) in the given order. absorbances were measured at 700 nm.

[4] = Cupric ion reducing assay (CUPRAC); settings: 0.2 mg/mL; mean ± SD, n = 3
Description: The reduction capacity for cupric ions (Cu^2+) was determined by Cupric Ions Reducing Assay (CUPRAC) assay as previously described[47]^,[48]. A volume of 0.25 ml neocuproine (7.5 mM) in ethanol, 0.25 ml NH4Ac (1 M) and 0.25 ml CuCl2 (0.01 M) was mixed with sample at different amounts and standards.

Sequence of hCA I (P00915 whole entry): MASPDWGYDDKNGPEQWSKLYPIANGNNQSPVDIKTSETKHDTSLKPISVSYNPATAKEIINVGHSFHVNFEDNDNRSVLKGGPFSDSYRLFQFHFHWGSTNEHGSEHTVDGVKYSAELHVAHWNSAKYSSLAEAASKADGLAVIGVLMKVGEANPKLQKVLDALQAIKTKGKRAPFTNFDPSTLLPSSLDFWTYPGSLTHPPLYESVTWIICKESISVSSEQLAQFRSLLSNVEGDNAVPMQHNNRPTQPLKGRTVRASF
T1 sequence (O42275 24-633): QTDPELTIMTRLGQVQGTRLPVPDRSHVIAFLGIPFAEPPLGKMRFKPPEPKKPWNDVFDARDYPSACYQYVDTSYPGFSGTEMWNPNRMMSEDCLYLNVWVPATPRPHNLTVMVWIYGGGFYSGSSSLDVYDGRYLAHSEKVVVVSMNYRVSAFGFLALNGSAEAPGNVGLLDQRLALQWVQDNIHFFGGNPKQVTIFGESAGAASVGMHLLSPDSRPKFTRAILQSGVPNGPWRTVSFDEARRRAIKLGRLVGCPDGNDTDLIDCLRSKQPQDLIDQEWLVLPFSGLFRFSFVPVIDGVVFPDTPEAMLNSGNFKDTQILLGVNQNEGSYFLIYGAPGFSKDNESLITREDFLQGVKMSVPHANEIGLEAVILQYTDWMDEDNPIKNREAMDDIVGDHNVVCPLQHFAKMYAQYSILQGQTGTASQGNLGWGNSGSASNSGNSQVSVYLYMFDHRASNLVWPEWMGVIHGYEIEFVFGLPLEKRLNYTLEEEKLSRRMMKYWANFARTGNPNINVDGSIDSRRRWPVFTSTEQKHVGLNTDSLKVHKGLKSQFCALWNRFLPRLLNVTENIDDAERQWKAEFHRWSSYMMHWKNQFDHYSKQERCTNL

NS(=O)(=O)c1ccc(NCc2cccc(Cl)c2O)cc1 [Compound 8, 4-((3-Chloro-2-hydroxybenzyl)amino)benzenesulfonamide]
Ki (hCA I; KI hCA I): 32.1 nM | Ki (hCA II; read-out: KI hCA II): 62 nM and 61.9 nM | Selectivity index KI (hCA II/hCA I) (hCA II): 1.93 | Ki (AChE; KI AChE): 31.4 ± 1.2 nM | DPPH radical scavenging activity [1]: 3.2 ± 0.6% | ABTS radical scavenging activity [2]: 78.4 ± 7.7% | Fe3+ reducing ability [3]: 0.33 ± 0.07 absorbance | Cu2+ reducing ability [4]: 0.80 ± 0.05 absorbance

NS(=O)(=O)c1cccc(N=Cc2cccc(Br)c2O)c1 [Compound 1, 3-((3-Bromo-2-hydroxybenzylidene)amino)benzenesulfonamide]
Ki (hCA I; read-out: KI hCA I): 59.7 ± 0.1 nM | Ki (hCA II; read-out: KI hCA II): 16.4 ± 0.7 nM | Selectivity index KI (hCA II/hCA I) (hCA II): 0.27 | Ki (AChE; read-out: KI AChE): 24.3 ± 1 nM | DPPH radical scavenging activity [1]: 18.7 ± 1.5% | ABTS radical scavenging activity [2]: 18.4 ± 2.0% | Fe3+ reducing ability [3]: 0.15 ± 0.03 absorbance | Cu2+ reducing ability [4]: 0.22 ± 0.02 absorbance

Cc1c(C)c2c(c(C)c1O)CCC(C)(C(=O)O)O2 (stereo not shown) [Trolox, reference compound]
DPPH radical scavenging activity [1]: 57.8 ± 6.8% | ABTS radical scavenging activity [2]: 94.4 ± 9.0% | Fe3+ reducing ability [3]: 1.27 ± 0.12 absorbance | Cu2+ reducing ability [4]: 1.81 ± 0.05 absorbance

NS(=O)(=O)c1ccc(N=Cc2cccc(Cl)c2O)cc1 [Compound 4, 4-((3-Chloro-2-hydroxybenzylidene)amino)benzenesulfonamide]
Ki (hCA I; read-out: KI hCA I): 40.1 ± 0.6 nM | Ki (hCA II; read-out: KI hCA II): 79.3 ± 0.2 nM | Selectivity index KI (hCA II/hCA I) (hCA II): 1.98 | Ki (AChE; read-out: KI AChE): 27.9 ± 1.3 nM | DPPH radical scavenging activity [1]: 12.7 ± 0.9% | ABTS radical scavenging activity [2]: 14.7 ± 0.9% | Fe3+ reducing ability [3]: 0.33 ± 0.02 absorbance | Cu2+ reducing ability [4]: 0.24 ± 0.05 absorbance

NS(=O)(=O)c1cccc(N=Cc2cccc(Cl)c2O)c1 [Compound 2, 3-((3-Chloro-2-hydroxybenzylidene)amino)benzenesulfonamide]
Ki (hCA I; read-out: KI hCA I): 66.6 nM and 66.5 nM | Ki (hCA II; read-out: KI hCA II): 13.8 ± 0.1 nM | Selectivity index KI (hCA II/hCA I) (hCA II): 0.21 | Ki (AChE; read-out: KI AChE): 21 nM | DPPH radical scavenging activity [1]: 8.2 ± 0.4% | ABTS radical scavenging activity [2]: 15.1 ± 1.4% | Fe3+ reducing ability [3]: 0.27 ± 0.02 absorbance | Cu2+ reducing ability [4]: 0.26 ± 0.04 absorbance

Cc1cc(C(C)(C)C)c(O)c(C(C)(C)C)c1 [BHT, butylated hydroxytoluene, reference compound]
DPPH radical scavenging activity [1]: 47.0 ± 5.2% | ABTS radical scavenging activity [2]: 98.9 ± 9.1% | Fe3+ reducing ability [3]: 0.67 ± 0.01 absorbance | Cu2+ reducing ability [4]: 2.00 ± 0.11 absorbance

COc1ccc(O)c(C(C)(C)C)c1 [BHA, butylated hydroxyanisole, reference compound]
DPPH radical scavenging activity [1]: 21.7 ± 1.9% | ABTS radical scavenging activity [2]: 79.5 ± 6.1% | Fe3+ reducing ability [3]: 1.23 ± 0.20 absorbance | Cu2+ reducing ability [4]: 2.28 ± 0.13 absorbance

NS(=O)(=O)c1cccc(NCc2cccc(Cl)c2O)c1 [Compound 6, 3-((3-Chloro-2-hydroxybenzyl)amino)benzenesulfonamide]
Ki (hCA I; read-out: KI hCA I): 101 ± 1.9 nM | Ki (hCA II; read-out: KI hCA II): 29.1 ± 0.3 nM | Selectivity index KI (hCA II/hCA I) (hCA II): 0.29 | Ki (AChE; read-out: KI AChE): 25.7 ± 1 nM | DPPH radical scavenging activity [1]: 9.2 ± 0.6% | ABTS radical scavenging activity [2]: 77.7 ± 7.9% | Fe3+ reducing ability [3]: 0.47 ± 0.06 absorbance | Cu2+ reducing ability [4]: 0.93 ± 0.07 absorbance

NS(=O)(=O)c1ccc(N=Cc2cccc(Br)c2O)cc1 [Compound 3, 4-((3-Bromo-2-hydroxybenzylidene)amino)benzenesulfonamide]
Ki (hCA I; read-out: KI hCA I): 80.5 ± 1.5 nM | Ki (hCA II; read-out: KI hCA II): 26.3 ± 0.09 nM | Selectivity index KI (hCA II/hCA I) (hCA II): 0.33 | Ki (AChE; read-out: KI AChE): 34.9 ± 1.4 nM | DPPH radical scavenging activity [1]: 5.9 ± 0.4% | ABTS radical scavenging activity [2]: 7.3 ± 0.6% | Fe3+ reducing ability [3]: 0.11 ± 0.01 absorbance | Cu2+ reducing ability [4]: 0.28 ± 0.04 absorbance

NS(=O)(=O)c1ccc(NCc2cccc(Br)c2O)cc1 [Compound 7, 4-((3-Bromo-2-hydroxybenzyl)amino)benzenesulfonamide]
Ki (hCA I; read-out: KI hCA I): 62.3 nM | Ki (hCA II; KI hCA II): 10.1 nM | Selectivity index KI (hCA II/hCA I) (hCA II): 0.16 | Ki (AChE; KI AChE): 77 ± 9.3 nM | DPPH radical scavenging activity [1]: 4.2 ± 0.4% | ABTS radical scavenging activity [2]: 74.5 ± 6.4% | Fe3+ reducing ability [3]: 0.39 ± 0.04 absorbance | Cu2+ reducing ability [4]: 1.15 ± 0.08 absorbance

NS(=O)(=O)c1cccc(NCc2cccc(Br)c2O)c1 [Compound 5, 3-((3-Bromo-2-hydroxybenzyl)amino)benzenesulfonamide]
Ki (hCA I; read-out: KI hCA I): 52.1 ± 0.7 nM | Ki (hCA II; read-out: KI hCA II): 19.8 ± 1.2 nM | Selectivity index KI (hCA II/hCA I) (hCA II): 0.38 | Ki (AChE; read-out: KI AChE): 61.2 ± 4 nM | DPPH radical scavenging activity [1]: 1.9 ± 0.09% | ABTS radical scavenging activity [2]: 76.8 ± 8.1% | Fe3+ reducing ability [3]: 0.33 ± 0.03 absorbance | Cu2+ reducing ability [4]: 0.99 ± 0.07 absorbance

From publication PMC7170330 (Journal of Enzyme Inhibition and Medicinal Chemistry, 2020)
